These compounds were tested against T1, RORc ligand binding domain (Homo sapiens, UniProt P51449) (assay: In Vitro RORc Ligand Binding Assay). Conditions: RORc IC50, radioligand 25-[3H]hydroxycholesterol 6 nM; 0.6 ug/mL RORc receptor; 3 h at 25° C.
T1 sequence (P51449 269-508 limits assumed): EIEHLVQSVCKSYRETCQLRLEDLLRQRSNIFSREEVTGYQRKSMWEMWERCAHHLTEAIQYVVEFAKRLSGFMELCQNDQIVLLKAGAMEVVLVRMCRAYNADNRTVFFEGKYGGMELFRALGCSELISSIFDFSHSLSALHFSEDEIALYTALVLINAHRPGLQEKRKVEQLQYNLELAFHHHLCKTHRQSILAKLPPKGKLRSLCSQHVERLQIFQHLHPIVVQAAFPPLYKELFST

Row | SMILES | IC50 [nM]
1 | CC1(C)[C@H]2CC[C@]1(c1cncc(-c3nnc(CO)[nH]3)n1)c1nnc(-c3c(F)cccc3F)cc12 [Example 121, (5-(6-((5R,8S)-3-(2,6-difluorophenyl)-9,9-dimethyl-5,6,7,8-tetrahydro-5,8-methanocinnolin-8-yl)pyrazin-2-yl)-4H-1,2,4-triazol-3-yl)methanol] | 27.2
2 | CC1(C)[C@H]2CC[C@]1(c1ccnc(C3CCOCC3)n1)c1nnc(-c3c(F)cccc3F)cc12 [Example 356] | 2.4
3 | CC1(C)[C@H]2CC[C@]1(c1cncc(-c3nc(CS(C)(=O)=O)n[nH]3)n1)c1nnc(-c3c(F)cccc3F)cc12 [Example 294] | 23.3
4 | CC1(C)[C@H]2CC[C@]1(c1cncc(-c3nc(CS(C)(=O)=O)co3)n1)c1nnc(-c3c(F)cccc3F)cc12 [Example 369, 2-(6-((5R,8S)-3-(2,6-difluorophenyl)-9,9-dimethyl-5,6,7,8-tetrahydro-5,8-methanocinnolin-8-yl)pyrazin-2-yl)-4-((methylsulfonyl)methyl)oxazole] | 3.6
5 | CC1(C)[C@H]2CC[C@]1(c1cncc(-c3ccc(CS(C)(=O)=O)nc3)n1)c1nnc(-c3c(F)cccc3F)cc12 [Example 413] | 5
6 | CC1(C)[C@H]2CC[C@]1(c1cncc(C(=O)NCCO)n1)c1nnc(-c3c(F)cccc3F)cc12 [Example 41, 6-((5R,8S)-3-(2,6-difluorophenyl)-9,9-dimethyl-5,6,7,8-tetrahydro-5,8-methanocinnolin-8-yl)-N-(2-hydroxyethyl)pyrazine-2-carboxamide] | 25.6
7 | CC1(C)[C@@H]2CC[C@@]1(c1cccc(C(=O)NCCO)n1)c1nnc(-c3c(F)cccc3F)cc12 [Example 99, 6-((5S,8R)-3-(2,6-difluorophenyl)-9,9-dimethyl-5,6,7,8-tetrahydro-5,8-methanocinnolin-8-yl)-N-(2-hydroxyethyl)picolinamide] | 40.9
8 | CC1(C)[C@H]2CC[C@]1(c1cncc(-c3nc([C@](C)(O)C(F)(F)F)co3)n1)c1nnc(-c3c(F)cccc3F)cc12 [Example 428, (S)-2-(2-(6-((5R,8S)-3-(2,6-difluorophenyl)-9,9-dimethyl-5,6,7,8-tetrahydro-5,8-methanocinnolin-8-yl)pyrazin-2-yl)oxazol-4-yl)-1,1,1-trifluoropropan-2-ol] | 15.7
9 | CC1(C)[C@H]2CC[C@]1(c1cccc(-c3nc(CS(C)(=O)=O)n[nH]3)n1)c1nnc(-c3c(F)cccc3F)cc12 [Example 321] | 12.7
10 | CNC(=O)c1cccc([C@@]23CC[C@@H](c4cc(-c5c(F)cccc5F)nnc42)C3(C)C)n1 [Example 17, 6-((5R,8S)-3-(2,6-difluorophenyl)-9,9-dimethyl-5,6,7,8-tetrahydro-5,8-methanocinnolin-8-yl)-N-methylpicolinamide] | 20.5
11 | CC(C)OC(=O)c1coc(-c2cncc([C@@]34CC[C@@H](c5cc(-c6c(F)cccc6F)nnc53)C4(C)C)n2)n1 [Example 346, isopropyl 2-(6-((5R,8S)-3-(2,6-difluorophenyl)-9,9-dimethyl-5,6,7,8-tetrahydro-5,8-methanocinnolin-8-yl)pyrazin-2-yl)oxazole-4-carboxylate] | 3.7
12 | CC1(C)[C@H]2CC[C@]1(c1ccnc(-c3cccnc3)n1)c1nnc(-c3c(F)cccc3F)cc12 [Example 254] | 4.4
13 | CC1(C)[C@H]2CC[C@]1(c1nc(C#N)ccc1Br)c1nnc(-c3c(F)cccc3F)cc12 [Example 166, 5-bromo-6-((5R,8S)-3-(2,6-difluorophenyl)-9,9-dimethyl-5,6,7,8-tetrahydro-5,8-methanocinnolin-8-yl)picolinonitrile] | 3.9
14 | Cc1ncc(-c2cnc(C)c([C@@]34CC[C@@H](c5cc(-c6c(F)cccc6F)nnc53)C4(C)C)n2)o1 [Example 209, 5-(6-((5R,8S)-3-(2,6-difluorophenyl)-9,9-dimethyl-5,6,7,8-tetrahydro-5,8-methanocinnolin-8-yl)-5-methylpyrazin-2-yl)-2-methyloxazole] | 15.2
15 | CC1(C)[C@@H]2CC[C@@]1(c1cccc(C#N)n1)c1nnc(-c3c(F)cccc3F)cc12 [Example 59, 6-((5S,8R)-3-(2,6-difluorophenyl)-9,9-dimethyl-5,6,7,8-tetrahydro-5,8-methanocinnolin-8-yl)picolinonitrile] | 15.9
16 | CC1(C)[C@H]2CC[C@]1(c1cccc(N3CCNC3=O)n1)c1nnc(-c3c(F)cccc3F)cc12 [Example 157, 1-(6-((5R,8S)-3-(2,6-difluorophenyl)-9,9-dimethyl-5,6,7,8-tetrahydro-5,8-methanocinnolin-8-yl)pyridin-2-yl)imidazolidin-2-one] | 5.1
17 | Cc1cn(-c2nccc([C@@]34CC[C@@H](c5cc(-c6c(F)cccc6F)nnc53)C4(C)C)n2)cn1 [Example 208] | 3.6

Row | SMILES | IC50 [nM]
18 | C[C@@H](O)c1nnc(-c2nccc([C@@]34CC[C@@H](c5cc(-c6c(F)cccc6F)nnc53)C4(C)C)n2)[nH]1 [Example 264] | 32.3
19 | CC1(C)[C@H]2CC[C@]1(c1cncc(-c3ccc(N)nc3)n1)c1nnc(-c3c(F)cccc3F)cc12 [Example 419, 5-(6-((5R,8S)-3-(2,6-difluorophenyl)-9,9-dimethyl-5,6,7,8-tetrahydro-5,8-methanocinnolin-8-yl)pyrazin-2-yl)pyridin-2-amine] | 10.1
20 | CC(C)(O)CNC(=O)c1ccnc([C@@]23CC[C@@H](c4cc(-c5c(F)cccc5F)nnc42)C3(C)C)c1 [Example 77] | 139
21 | C[C@H](O)Cc1n[nH]c(-c2cccc([C@@]34CC[C@@H](c5cc(-c6c(F)cccc6F)nnc53)C4(C)C)n2)n1 [Example 312, (S)-1-(5-(6-((5R,8S)-3-(2,6-difluorophenyl)-9,9-dimethyl-5,6,7,8-tetrahydro-5,8-methanocinnolin-8-yl)pyridin-2-yl)-1H-1,2,4-triazol-3-yl)propan-2-ol] | 62.7
22 | CC(C)(C#N)c1n[nH]c(-c2cccc([C@@]34CC[C@@H](c5cc(-c6c(F)cccc6F)nnc53)C4(C)C)n2)n1 [Example 357, 2-(5-(6-((5R,8S)-3-(2,6-difluorophenyl)-9,9-dimethyl-5,6,7,8-tetrahydro-5,8-methanocinnolin-8-yl)pyridin-2-yl)-1H-1,2,4-triazol-3-yl)-2-methylpropanenitrile] | 13
23 | Cc1ncc(C(=O)NCCO)nc1[C@@]12CC[C@@H](c3cc(-c4c(F)cccc4F)nnc31)C2(C)C [Example 170, 6-((5R,8S)-3-(2,6-difluorophenyl)-9,9-dimethyl-5,6,7,8-tetrahydro-5,8-methanocinnolin-8-yl)-N-(2-hydroxyethyl)-5-methylpyrazine-2-carboxamide] | 119
24 | CC1(C)[C@H]2CC[C@]1(c1cncc(-c3nc([C@@H](O)C(F)(F)F)n[nH]3)n1)c1nnc(-c3c(F)cccc3F)cc12 [Example 308, (R)-1-(5-(6-((5R,8S)-3-(2,6-difluorophenyl)-9,9-dimethyl-5,6,7,8-tetrahydro-5,8-methanocinnolin-8-yl)pyrazin-2-yl)-1H-1,2,4-triazol-3-yl)-2,2,2-trifluoroethanol] | 104
25 | CC1(C)[C@H]2CC[C@]1(c1ccnc(NCCO)n1)c1nnc(-c3c(F)cccc3F)cc12 [Example 98] | 15.4
26 | CC1(C)[C@H]2CC[C@]1(c1nc(-c3nc(C(N)=O)no3)ncc1F)c1nnc(-c3c(F)cccc3F)cc12 [Example 283] | 11.6
27 | C[C@@H](O)CNC(=O)c1cncc([C@@]23CC[C@@H](c4cc(-c5c(F)cccc5F)nnc42)C3(C)C)n1 [Example 49, 6-((5R,8S)-3-(2,6-difluorophenyl)-9,9-dimethyl-5,6,7,8-tetrahydro-5,8-methanocinnolin-8-yl)-N-((R)-2-hydroxypropyl)pyrazine-2-carboxamide] | 40.9
28 | CNC(=O)c1ccnc([C@@]23CC[C@@H](c4cc(-c5c(F)cccc5F)nnc42)C3(C)C)n1 [Example 47, 2-((5R,8R)-3-(2,6-difluorophenyl)-9,9-dimethyl-5,6,7,8-tetrahydro-5,8-methanocinnolin-8-yl)-N-methylpyrimidine-4-carboxamide] | 58.3
29 | CC1(C)[C@H]2CC[C@]1(c1cncc(C(=O)NC3COC3)n1)c1nnc(-c3c(F)cccc3F)cc12 [Example 29, 6-((5R,8S)-3-(2,6-difluorophenyl)-9,9-dimethyl-5,6,7,8-tetrahydro-5,8-methanocinnolin-8-yl)-N-(oxetan-3-yl)pyrazine-2-carboxamide] | 43.1
30 | CC1(C)[C@H]2CC[C@]1(c1cncc(C(=O)NC3(CO)CC3)n1)c1nnc(-c3c(F)cccc3F)cc12 [Example 140, 6-((5R,8S)-3-(2,6-difluorophenyl)-9,9-dimethyl-5,6,7,8-tetrahydro-5,8-methanocinnolin-8-yl)-N-(1-(hydroxymethyl)cyclopropyl)pyrazine-2-carboxamide] | 44.4
31 | CC1(C)[C@H]2CC[C@]1(c1cccc(C(=O)N3CCOCC3)n1)c1nnc(-c3c(F)cccc3F)cc12 [Example 37, (6-((5R,8S)-3-(2,6-difluorophenyl)-9,9-dimethyl-5,6,7,8-tetrahydro-5,8-methanocinnolin-8-yl)pyridin-2-yl)(morpholino)methanone] | 48.2
32 | CC1(C)[C@H]2CC[C@]1(c1ccnc(-n3cnc(C4CC4)n3)n1)c1nnc(-c3c(F)cccc3F)cc12 [Example 274] | 2
33 | CC1(C)[C@H]2CC[C@]1(c1cccc(NS(=O)(=O)C3COC3)n1)c1nnc(-c3c(F)cccc3F)cc12 [Example 164, N-(6-((5R,8S)-3-(2,6-difluorophenyl)-9,9-dimethyl-5,6,7,8-tetrahydro-5,8-methanocinnolin-8-yl)pyridin-2-yl)oxetane-3-sulfonamide] | 32.4
34 | COC(=O)c1n[nH]c(=O)cc1[C@@]12CC[C@@H](c3cc(-c4c(F)cccc4F)nnc31)C2(C)C [Example 436] | 192
